Assay: gradient 5% acetonitrile 3 min, to 50% in 2 min, to 85% in 15 min, held 3 min, 100 µL/min
Settings: column: Zorbax Extend-C18 2.1 x 50 mm; eluents: water / acetonitrile, 0.1% formic acid
Summary of the method: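 Standards, all pure, were combined into mixtures of ~100 molecules and run at 100 μL/min on a Zorbax Extend-C18 column (2.1 × 50 mm, 1.8 μm) with water and acetonitrile, each containing 0.1% formic acid. A coupled quadrupole time-of-flight mass spectrometer operated in positive and negative ionization mode. Retention time values come from computationally picked adduct peaks, each inspected manually.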

Structure (SMILES) | RP-LC retention time [s]
COc1ccc(Nc2c(-c3ccc(SC)cc3)nc3cnccn23)cc1OC | 818
CCOC(=O)C1CCN(CC(O)COc2cc(C)cc(C)c2C)CC1 (configuration not stated) | 597
CCN(CC)C(=O)c1ccc2c(c1)N(CC(=O)NC1CCCCCC1)C(=O)CO2 | 768
CCNc1cc(N2CCCC(CCC(=O)NC(CC)CC)C2)ncn1 (configuration not stated) | 658
Cn1nc(-c2nnc(-c3ccccc3)o2)c2c1CCN(S(=O)(=O)c1ccc(Cl)s1)C2 | 1010
O=C(c1cccs1)N1CCN(c2cc(-c3ccccc3)[nH]n2)CC1 | 734
CN1CC(=O)N(CC(=O)Nc2ccc(OC(F)(F)F)cc2)c2ccccc2C1=O | 777
CCOc1cccc(-c2noc(Cn3c(=O)n(CCc4ccccc4)c(=O)c4sccc43)n2)c1 | 660
COc1ccc(OC)c(-c2csc(-c3nnn(-c4ccc(C)c(C)c4)c3N)n2)c1 | 1230
Cc1ccc(Nc2nc(C)cc(N3CCN(S(=O)(=O)c4cc(F)ccc4F)CC3)n2)cc1 | 797
CCNc1nc(NCC)n2c(SCC(=O)Nc3ccccc3[N+](=O)[O-])nnc2n1 | 623
COc1ccccc1CNS(=O)(=O)c1ccc(-c2c(C)noc2C)cc1 | 922
O=C(c1cc2ccccc2[nH]1)N1CCC2(CC1)N=C(c1ccc(Br)cc1)NO2 | 959
Cc1ccc(-c2[nH]ncc2CN2C[C@@H]3CCN(S(C)(=O)=O)C[C@]3(CF)C2)cc1C | 617
O=C(Cc1nnc2c(-c3nc(C4CC4)no3)cccn12)N1CCSCC1 | 653
COc1ccc(-c2nc3cnccn3c2Nc2ccc3c(c2)OCO3)cc1OC | 672
Cc1noc(/C=C\c2ccc(S(=O)(=O)N3CCOCC3)cc2)c1NC(=O)C1CC1 | 777
COC(=O)C1=CN(c2ccc(F)cc2)c2ccccc2S1(=O)=O | 790
CCNC(=O)N1CCc2c([nH]c3ccc(OC)cc23)C12C(=O)N(C)c1ccccc12 (configuration not stated) | 984
COc1ccc(NC(=O)Cn2nc3c4sc(N(C)C)nc4ncn3c2=O)cc1 | 1410
O=C(NC1CC1)c1cn(CCC2CCCCN2C(=O)c2ccoc2)nn1 (configuration not stated) | 641
Cc1ccc(C(=O)NCc2nc(-c3ccc4c(c3)ncn4C)no2)cc1 | 634
O=C(c1cc2ccccc2o1)N1CCCC(c2nnc(C(F)(F)F)o2)C1 (configuration not stated) | 872

Structure (SMILES) | RP-LC retention time [s]
O=C(NC1CC1)c1nc2ccccn2c1-c1ccc(Cl)cc1 | 802
CC1(C)Cc2cccc(OCC(=O)NCCc3c[nH]c4ccccc34)c2O1 | 850
O=C(CSc1ccncc1)N1CC2CN(S(=O)(=O)c3cccc(F)c3)CC(C1)O2 | 600
CC1CCN(S(=O)(=O)c2cc(-c3nnc(C(C)C)o3)co2)CC1 | 964
CCCCNC(=O)C1CCN(C(=O)Nc2ccc(NC(=O)NC3CCCCC3)cc2)CC1 | 732
Cc1cnc(C2CN(Cc3cccnc3)C2)n1Cc1ccccc1 | 536
Cc1cc(C)cc(NC(=O)Cc2ccc(OC(C)(C)C(=O)O)cc2)c1 | 969
CN(C)C(CNC(=O)c1ccc(Br)o1)c1cn(C)c2ccccc12 (configuration not stated) | 578
Cc1nc(-c2cn(C(C)C)c3ncccc23)sc1C(=O)N1CCCCC1C (configuration not stated) | 1030
CC(C)c1csc(-c2csc(S(=O)(=O)NCc3ccc(Br)cc3)c2)n1 | 1190
O=C(Cn1ccn2nc(-c3ccc(F)cc3)c(CO)c2c1=O)NCc1ccc2c(c1)OCO2 | 778
Cc1ccc(Cn2cc(-c3ccncc3)cc2C(=O)NCCN(C)C)cc1 | 570
CC1CCN(CCNC(=O)C2CCN(S(=O)(=O)c3ccc4c(c3)sc(=O)n4C)CC2)CC1 | 622
CCN1CCN(C2CCN(C(=O)c3cccc(Br)c3)CC2)C1=O | 720
COc1ccc(C(=O)Nc2ccc3c(c2)Sc2ncccc2C(=O)N3C(C)C)c(OC)c1 | 951
O=C(Cn1ccnc1-c1ccnc(N2CCSCC2)c1)NCc1ccc(Cl)cc1 | 674
Cc1sc(-c2cc(C(F)(F)F)on2)cc1S(=O)(=O)Nc1ccc2c(c1)OCCO2 | 1070
COc1ccc(Cl)cc1S(=O)(=O)N1CCCN(c2ccc(=O)n(-c3ccccc3)n2)CC1 | 906
CCSc1nc2ccc(NS(=O)(=O)c3ccc(F)c(Cl)c3)cc2s1 | 1110
COc1ccc(C2CC(=O)N(c3ccc4c(c3)OCCO4)C(=O)C2)cc1OC | 789
COc1ccc(-c2nnc3sc(-c4ccncc4)nn23)cc1OC | 710
CCN1C(=O)c2ccccc2Oc2ccc(C(=O)NCCc3ccc(OC)c(OC)c3)cc21 | 864
O=C(c1ccc2c(c1)CCCC2)N1CCN(c2ccccc2)CC1 | 1050

Structure (SMILES) | RP-LC retention time [s]
CCn1cc(-c2ccc(Cl)cc2)cc1C(=O)N1CCCCC1 | 1150
O=C(NCc1cccc(F)c1)C1CCN(c2cncnc2N2CCOCC2)CC1 | 614
COCCn1nc2n(c1=O)CCC1(CC2)CCN(C(=O)C2CCCCCC2)CC1 | 710
CC(C)NC(=O)C1CCCN(c2nc3ncn(CC(=O)NC4CCc5ccccc54)c(=O)c3s2)C1 (configuration not stated) | 709
Cc1ccccc1Cc1nc(-c2cccc(-c3ccnn3C)c2)no1 | 1110
Cc1ccn2c(Nc3ccccc3C)c(-c3ccccc3)nc2c1 | 745
O=C(C1CC1)N1CCC(N(Cc2cccnc2)C2CCOCC2)CC1 | 550
O=C(Nc1ccccc1F)C(=O)c1cn(CC(=O)N2CCCC2)c2ccccc12 | 974
CN(C)CCNc1oc(COc2ccc(Cl)cc2)nc1C#N | 641
c1ccc2c3c([nH]c2c1)CNCC3 | 703
Fc1cccc(-c2nnc(Cc3nc(-c4ccc5c(c4)OCO5)no3)o2)c1 | 958
COc1cccc(CNC(=O)C2CCN(c3nnc4cccc(C)n34)CC2)c1 | 642
O=S(=O)(c1ccccc1F)N1CC(n2cnnc2-c2ccccc2)C1 | 671
CC(C)n1cc(S(=O)(=O)NCc2cccc(F)c2)c2cccnc21 | 926
CCn1cnc(S(=O)(=O)N2CCC(C(=O)Nc3cccc4ccccc34)CC2)c1 | 732
O=C(NCc1ccccc1F)c1cccc(-c2ccc(N3CCCC3)nc2)c1 | 675
C=CCN1C(=O)COc2ccc(-c3csc(NC(=O)c4ccc(Br)cc4)n3)cc21 | 1120
COc1ccc(-c2nc(-c3nnn(Cc4ccccc4)c3C)no2)cc1OC | 959
Cc1ccc2cc(CCC(=O)O)c(=O)[nH]c2c1 | 758
Cc1cccc(-c2noc(Cc3nnc(-c4ccc(C)c(C)c4)o3)n2)c1 | 1190
COc1ncc(C(=O)N2CCN(c3ccccc3F)CC2)cn1 | 770

From the METLIN SMRT retention time set (Domingo-Almenara et al. 2019)
